Results as given in patent US8242152B2, “Use of 4-[(4-thiazolyl)phenoxy]alkoxy-benzamidine derivatives for the prophylaxis and treatment of osteoporosis” (Dong Wha Pharmaceutical Co., Ltd., priority 2001, dated 2012).
“And” between values parts separate entries of the source, which are not always exact repeats. Identical values can stand only once. Like-named read-outs stand apart in the source and are kept apart here.

Tests used:
[1] = system: Primary osteoblastic cells; assay: ALP activity in primary osteoblastic cells (Example 5); format: cell-based, ICR mice; conditions: for ALP activity (% of control) / ALP activity (Unit): 3 days
Description: Primary osteoblastic cells isolated from the calvariae of newborn ICR mice were grown to confluence in α-MEM containing 10% FBS. These cells were plated at a density of 1×10^5/ml in tissue culture dishes. After 24 h, cells were changed with a differentiation medium containing ascorbic acid (50 ug/ml) and β-glycerophosphate (10 mM) with or without the compounds and further cultured for 3 days. Cells were washed twice with PBS and harvested. For the measurement of ALP activity and total protein content, cells were extracted into 0.1% Triton X-100 in PBS containing 1 mM MgCl2 and centrifuged at 1.000×g for 5 minutes. Enzyme activity was determined in supernatants by colorimetric procedure using p-nitrophenyl phosphate (PNP) as a substrate at a wavelength of 405 nm and the protein content was determined by a Bio-Rad protein assay kit. The ALP unit was expressed as nmol PNP/ug protein/min.

LTB4 receptor = LTB4 receptor (Homo sapiens, UniProt Q15722); design: endogenous in cells; host or cells: human neutrophils (PMN) purified from fresh blood; conditions: cited from earlier work
[2] = system: osteoclast differentiation; assay: Osteoclast differentiation, co-culture, TRAP(+)MNCs (Example 5); format: cell-based, mice; conditions: for inhibition at 0.01 µM / inhibition at 0.1 µM / inhibition at 1 µM: Mus musculus, Osteoclast, 144 h, day 6, read-out: % inhibitory action
Description: To investigate the effect of compounds on osteoclast differentiation, co-culture between bone marrow cells (2.5×10^5 cells/cm^2) and calvaria-derived osteoblastic cells (4×10^4 cells/cm^2) was conducted in the presence of 1.25(OH)2D3(10^−8 M) and dexamethasone (10^−7 M) with α-MEM containing 10% FBS (referred as “osteoclastic medium”). Bone marrow cells were isolated from the femora of 6-week-old ddY mice and primary osteoblastic cells were isolated from the calvariae of newborn ICR mice by sequential digestion with 0.2% collagenase. The medium was changed every two days with fresh osteoclastic medium. An index of osteoclast formation was determined by counting TRAP-positive multinucleated osteoclasts (TRAP(+)MNCs). On day 6, the cells were fixed with 10% formaldehyde and stained for TRAP. The number of TRAP(+) MNCs containing more than 6-7 nuclei was counted under a microscope (ZEISS Axiovert 25, Switzerland). The results are shown as the relative inhibitory activity (% inhibition) compared to the control group.

osteoclast fusion [3] = assay: Osteoclast fusion assay with purified prefusion osteoclasts (Example 5); format: cell-based, mice; conditions: for inhibition at 0.08 µM / inhibition at 0.4 µM / inhibition at 2 µM / inhibition at 10 µM: read-out: Inhibitory action (%)
Description: The effect of the compounds on the fusion of osteoclasts was examined using purified prefusion osteoclasts (pOC, mononuclear and binuclear osteoclasts). Co-cultures of bone marrow cells (2×10^7 cells/dish) and newborn mice calvariae (1×10^6 cells/dish) were maintained in 100-mm-diameter dishes for 4 days with osteoclast differontiarion factor. Cultures were washed twice with PBS and treated with 0.1% collagenase/dispase at 37° C. for 20 minutes. Released cells, mostly osteoblasts, were removed with a pipet and the plates were washed three times with PBS. The remaining cells were incubated with 30 uM echistatin in α-MEM containing 1% BSA for 20 min at 37° C. These cells were collected, pelleted, and washed once with α-MEM containing 10% FBS. The cells released by this treatment were the subject of the fusion assay. More than 90% of the cells in the pOCs preparation used in the present study were positive for TRAP.
pOCs (15,000 cells/well) were plated on 96 well culture plates with or without various compounds. After culture for 18 hours, the cells were fixed and stained for TRAP.

osteoclast fusion [4] = assay: Fusion assay of prefusion osteoclasts (Example 2); format: cell-based, mice; conditions: Mus musculus, Osteoclast, 24 hrs; for inhibition at 0.08 µM / inhibition at 0.4 µM / inhibition at 2 µM / inhibition at 10 µM: read-out: Inhibitory action (%)
Excerpt: This assay is designed to evaluate the influences of each test substance in terms of osteoclast fusion during the differentiation process in which immature prefusion osteoclasts (pOC; osteoclast structure with one more nuclei) were transformed into mature multinucleated osteoclast (OCL) via cell to cell fusion (Gregg Wesolowski et al. Experimental Cell Research 219,679-686, 1995).
The prefusion osteoclast can be obtained via co-culture of both bone marrow cells and osteoblast, as prepared from Example 1. The mixture of both osteoblast (about 5×10^5 cells/plate) and bone marrow cells (about 1×10^7 cells/plate) were co-cultured in a 100 mm culture dish. Some differentiation factors, such as dexamethasone (10^−6M) and vitamin D3 (10^−9M), were added to the medium from the first day of culture. The medium was changed with a fresh medium containing differentiation factors every 2 days.
Since a great number of the prefusion osteoclasts having one or more nuclei in fusion process were formed during 4-day co-culture, the cells were separated and co-cultivation after 4 days. The medium was removed from the cells and with the addition of 0.2% collagenase solution (4 mL), the cells were incubated at 37° C. for 20 mins to separate the attachment cells. Since the majority of separated cells were osteoblasts, all osteoblasts were washed with PBS solution two or three times for their complete removal.
After the remaining prefusion osteoclasts were separated via reaction for 20 mins with the addition of echistatin containing 10% BSA, the cells were harvested by centrifuge.
The test substances diluted at each concentration were diluted at the desired concentration in α-MEM medium (addition of 10% FBS) to load them into a 96-well microplate in a dose of 100 uL per well. The osteoclastic monocytes, so separated from the preceding No. 1, were plated on a 96-well microplate in a dose of 5×10^3 cell/100 uL per well and cultured at 37° C. for 24 hrs, thus successfully resulting in the osteoclast fusion. In the case of specimen-free and positive controls, experiments were performed in the same manner as above.
The medium was removed from the cells and then the cells were washed once with PBS and fixed to a PBS solution containing 10% formalin for about 5 mins. The cells were again fixed to both ethanol and acetone (1/1) in a mixing solution for about 5 mins and dried off. The cells were further treated by TRAP staining solution for 15 mins and washed with water to observe the cells under the microscope. The TRAP-positive osteoclast counts, which were differentiated from monocyte to multinucleated cells (osteoclast having more than 10 nuclei) via fusion process, were measured.

[5] = system: osteoclast activity (resorption pits); assay: Bone resorption pit formation assay on dentine slice (Example 5); format: cell-based, mice; conditions: for inhibition at 0.01 µM / inhibition at 0.1 µM / inhibition at 1 µM: Mus musculus, Osteoclast, dentine slice, 24 h, read-out: Inhibitory activity (%)
Description: Method for evaluating the effects of the compounds on osteoclast activity: Multinucleated osteoclasts were developed on collagen gel plates by co-culture system as described. On day 6-8 of the co-culture, multinucleated OCLs were detached from plates by 0.2% collagenase treatment (“crude OCLs”). Crude OCLs suspended in α-MEM containing 10% FBS were placed on a dentine slice (4 mm diameter) in a 96-well culture plate. […] At the end of the incubation, cells were removed by 1 M NH4OH treatment and resorption pits formed (in the slices stained with Mayer's hematoxylin). Resorption pits were enumerated with an image analyzer and compared to the control group.

[6] = Mus musculus, Osteoclast, 18 hours
[7] = Mus musculus, Osteoclast, 2 uM, 18 hours

LTB4 receptor, sequence (Q15722 whole entry): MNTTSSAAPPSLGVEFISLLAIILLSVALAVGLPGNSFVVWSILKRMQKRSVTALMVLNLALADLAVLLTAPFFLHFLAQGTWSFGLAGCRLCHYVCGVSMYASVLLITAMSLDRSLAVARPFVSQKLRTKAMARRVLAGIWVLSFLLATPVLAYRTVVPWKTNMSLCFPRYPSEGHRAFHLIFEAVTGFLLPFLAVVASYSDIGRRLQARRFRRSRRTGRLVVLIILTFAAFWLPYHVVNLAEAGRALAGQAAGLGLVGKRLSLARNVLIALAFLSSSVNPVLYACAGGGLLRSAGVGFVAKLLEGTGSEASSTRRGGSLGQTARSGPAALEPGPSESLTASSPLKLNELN

Row | SMILES | ALP activity (% of control) ([1]; 0.01 uM) | ALP activity (Unit) ([1]; 0.01 uM) [nmol PNP/ug protein/min] | ALP activity (% of control) ([1]; 0.1 uM) | ALP activity (Unit) ([1]; 0.1 uM) [nmol PNP/ug protein/min] | Inhibition (%) of LTB4 receptor binding (LTB4 receptor; 1 uM) [%] | inhibition at 0.01 µM [2] [%] | inhibition at 0.1 µM [2] [%] | inhibition at 1 µM [2] [%] | inhibition at 0.08 µM (osteoclast fusion [3]; [6]) [%] | inhibition at 0.4 µM (osteoclast fusion [3]; [6]) [%] | inhibition at 2 µM (osteoclast fusion [3]; [7]) [%] | inhibition at 10 µM (osteoclast fusion [3]; [6]) [%] | inhibition at 0.08 µM (osteoclast fusion [4]) [%] | inhibition at 0.4 µM (osteoclast fusion [4]) [%] | inhibition at 2 µM (osteoclast fusion [4]) [%] | inhibition at 10 µM (osteoclast fusion [4]) [%] | inhibition at 0.01 µM [5] [%] | inhibition at 0.1 µM [5] [%] | inhibition at 1 µM [5] [%] | other results
1 | Cc1nc(-c2ccc(OCCCCOc3ccc(C(=N)N)cc3)cc2)c(C(C)C)s1 [DW1351, 4-{4-[4-(5-isopropyl-2-methyl-1,3-thiazol-4-yl)phenoxy]butoxy}-benzamidine] | 122.5 % of control | 20.8 | 121.2 % of control | 21.0 | 100 | 23 | 30.6 | 61.5 | 0 | 0 | 38 | 74 | 0 | 0 | 38 | 74 | 2.1 | 26.7 | 51.8 | Inhibition (%) of LTB4 receptor binding (LTB4 receptor; 100 nM): 89%
2 | Cc1nc(-c2ccc(OCCCCCOc3ccc(C(=N)NO)cc3)cc2)c(C(C)C)s1 [DW1350, N-hydroxy-4-{5-[4-(5-isopropyl-2-methyl-1,3-thiazol-4-yl)phenoxy]pentoxy}-benzamidine] | 141.9 % of control | 24.4 | 153.7 % of control | 26.7 | 92.3 | 38.5 | 62.7 | 88.7 | 4.5 | 25.6 | 80 | 98 | 4.5 | 25.6 | 80 | 98 | 45.2 | 52.6 | 72.6 | times better stimulator of osteoblast activity (ALP) than DW1349 ([1]; versus DW1349): 1.25 times; times greater stimulation of osteoblast activity (ALP) than DW1351 and DW1352 ([1]; versus DW1351 and DW1352): 1.15˜1.25 times; Inhibition (%) of LTB4 receptor binding (LTB4 receptor; 100 nM, 0.1 µM): 10% and < 10%; Inhibition (%) of LTB4 receptor binding (LTB4 receptor; 100 nM, listed as 1350, 0.1 µM): <10%; times more inhibition of osteoclast differentiation than DW1349 ([2]; versus DW1349, Table 8): 1.34 times; times stronger inhibition of osteoclast differentiation than DW1351 ([2]; versus DW1351, Table 8): about two times better; times stronger inhibition of osteoclast fusion than DW1349 (osteoclast fusion [3]; 2 uM, versus DW1349): 17.8 times; IC50 (osteoclast fusion [3]; [6]): 0.81 µM; times more inhibition of osteoclast fusion than DW1351 (osteoclast fusion [3]; versus DW1351): two fold better inhibitor; IC50 (osteoclast fusion [4]): 0.81 µM; times better than DW1349 in inhibiting osteoclast activity ([5]; versus DW1349, Table 10): about 1.45 times; times more inhibition of osteoclast activity than DW1351 ([5]; versus DW1351, Table 10): two-fold better inhibitor
